Test results taken from PMC9176816, “A rapid and sensitive assay for quantifying the activity of both aerobic and anaerobic ribonucleotide reductases acting upon any or all substrates” (PLoS ONE, 2022).

Key:
[1] = target: T1, E. coli class Ia RNR (EcRNR; NrdA/NrdB) (Escherichia coli, UniProt P00452); experiment: LC-MS/MS of dCDP, dUDP, dADP, dGDP formation; assay type: biochemical; conditions: four substrates (CDP 70, UDP 50, GDP 200, ADP 110 μM), 3 mM ATP, 20 μM dATP, remaining activity, specificity effector, pH 7.6, 37 °C
T1 construct: both subunits N-terminally His-tagged (tags kept), codon-optimized pET30(a), E. coli T7 Express; NrdA 85774 Da, NrdB 44528 Da; alpha2 and beta2 dimers; with Ribonucleoside-diphosphate reductase 1 subunit beta
T1 sequence (P00452 1-761): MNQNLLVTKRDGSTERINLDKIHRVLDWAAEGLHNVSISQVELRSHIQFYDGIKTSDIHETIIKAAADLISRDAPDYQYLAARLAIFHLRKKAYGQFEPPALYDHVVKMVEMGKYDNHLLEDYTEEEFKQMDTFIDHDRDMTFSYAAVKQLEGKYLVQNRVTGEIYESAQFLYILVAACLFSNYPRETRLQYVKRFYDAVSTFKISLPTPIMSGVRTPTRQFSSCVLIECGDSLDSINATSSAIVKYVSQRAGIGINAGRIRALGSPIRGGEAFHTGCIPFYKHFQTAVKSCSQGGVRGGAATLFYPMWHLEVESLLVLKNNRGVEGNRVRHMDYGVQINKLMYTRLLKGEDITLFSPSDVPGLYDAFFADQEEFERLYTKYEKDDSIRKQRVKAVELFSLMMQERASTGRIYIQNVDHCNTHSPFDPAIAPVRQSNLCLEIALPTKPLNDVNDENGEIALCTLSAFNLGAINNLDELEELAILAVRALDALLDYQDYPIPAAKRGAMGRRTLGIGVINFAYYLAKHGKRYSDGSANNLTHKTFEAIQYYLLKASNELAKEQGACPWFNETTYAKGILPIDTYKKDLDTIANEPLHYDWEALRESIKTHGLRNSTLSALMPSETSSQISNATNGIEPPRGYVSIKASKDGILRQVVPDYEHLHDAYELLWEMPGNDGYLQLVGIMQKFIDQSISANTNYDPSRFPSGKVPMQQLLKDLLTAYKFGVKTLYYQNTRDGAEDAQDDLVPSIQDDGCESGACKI
T1 sequence (P69924 2-376 partner): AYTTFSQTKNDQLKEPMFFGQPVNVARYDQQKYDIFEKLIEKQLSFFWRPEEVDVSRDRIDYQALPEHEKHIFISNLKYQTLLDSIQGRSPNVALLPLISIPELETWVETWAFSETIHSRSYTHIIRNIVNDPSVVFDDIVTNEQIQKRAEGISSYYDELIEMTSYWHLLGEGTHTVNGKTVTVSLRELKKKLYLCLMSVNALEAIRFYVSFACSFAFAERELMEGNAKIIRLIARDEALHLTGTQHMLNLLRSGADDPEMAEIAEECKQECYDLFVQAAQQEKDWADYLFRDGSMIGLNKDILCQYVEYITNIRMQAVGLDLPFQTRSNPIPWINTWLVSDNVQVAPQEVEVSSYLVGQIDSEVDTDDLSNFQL

[2] = target: T1, E. coli class Ia RNR (EcRNR; NrdA/NrdB); experiment: LC-MS/MS of dCDP formation; assay type: biochemical; conditions: relative to 3 mM ATP; 1 mM CDP, dATP printed as 0.175 μM and 175 μM, NrdA 0.1 μM, NrdB 0.5 μM, Trx/TrxR/NADPH, Mg, pH 7.6, 37 °C; allosteric inhibitor

**Q.** How did the “% of initial activity at 1 mM” value ([1]; 100 μM dGTP present) turn out when `Cc1cn([C@H]2C[C@H](O)[C@@H](COP(=O)(O)OP(=O)(O)OP(=O)(O)O)O2)c(=O)[nH]c1=O` [TTP] was run?
**A.** The value was 27%.

**Q.** How did the “% inactivation” value [2] turn out when `Nc1ncnc2c1ncn2[C@H]1C[C@H](O)[C@@H](COP(=O)(O)OP(=O)(O)OP(=O)(O)O)O1` [dATP] was run?
**A.** Its value is 99%.

**Q.** How did the “% of initial activity at 1 mM” value ([1]; 250 μM TTP present) turn out when `Nc1nc2c(ncn2[C@H]2C[C@H](O)[C@@H](COP(=O)(O)OP(=O)(O)OP(=O)(O)O)O2)c(=O)[nH]1` [dGTP] was run?
**A.** The value was 50%.
